# Experiments:
# [1] = physchem; settings: phosphate buffered saline, pH 2
# [2] = biological target: Cannabinoid receptor 2 (Homo sapiens, UniProt P34972); assay: biochemical
# [3] = physchem; settings: phosphate buffered saline, pH 7.4
# [4] = biological target: Cannabinoid receptor 1 (Homo sapiens, UniProt P21554); assay: biochemical; assay type: cell-based, CHO
# [5] = biological target: Acetylcholinesterase (Homo sapiens, UniProt P22303); assay: biochemical
# Acetylcholinesterase, sequence (P22303 whole entry): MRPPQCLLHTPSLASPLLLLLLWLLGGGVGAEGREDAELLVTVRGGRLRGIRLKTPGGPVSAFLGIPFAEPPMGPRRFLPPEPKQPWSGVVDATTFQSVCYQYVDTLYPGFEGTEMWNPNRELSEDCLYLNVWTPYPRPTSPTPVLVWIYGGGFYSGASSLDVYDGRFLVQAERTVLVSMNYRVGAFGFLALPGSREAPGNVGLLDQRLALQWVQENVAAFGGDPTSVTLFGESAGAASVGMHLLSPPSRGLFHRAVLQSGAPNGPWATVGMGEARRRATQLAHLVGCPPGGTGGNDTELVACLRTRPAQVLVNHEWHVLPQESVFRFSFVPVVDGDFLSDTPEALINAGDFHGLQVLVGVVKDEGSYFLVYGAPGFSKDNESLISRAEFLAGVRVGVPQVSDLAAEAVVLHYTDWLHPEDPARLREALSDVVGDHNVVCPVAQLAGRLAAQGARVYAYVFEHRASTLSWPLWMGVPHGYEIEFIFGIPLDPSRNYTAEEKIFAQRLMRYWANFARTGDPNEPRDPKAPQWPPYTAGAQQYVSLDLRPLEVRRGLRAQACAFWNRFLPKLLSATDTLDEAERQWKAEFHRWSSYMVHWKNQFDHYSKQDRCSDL
# Description: Inhibition of human recombinant AChE expressed in HEK293 cells by photometry
# Cannabinoid receptor 2, sequence (P34972 whole entry): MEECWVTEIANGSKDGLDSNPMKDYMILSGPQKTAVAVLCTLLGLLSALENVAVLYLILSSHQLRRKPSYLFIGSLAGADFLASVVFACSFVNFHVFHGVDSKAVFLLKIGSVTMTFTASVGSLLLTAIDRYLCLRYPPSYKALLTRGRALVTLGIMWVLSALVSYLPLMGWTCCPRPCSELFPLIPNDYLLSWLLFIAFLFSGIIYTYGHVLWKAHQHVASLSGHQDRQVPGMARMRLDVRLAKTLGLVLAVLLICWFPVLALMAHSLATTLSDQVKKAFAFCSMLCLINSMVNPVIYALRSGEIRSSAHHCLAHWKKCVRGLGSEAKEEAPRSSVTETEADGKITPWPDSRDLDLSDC
# Cannabinoid receptor 1, sequence (P21554 whole entry): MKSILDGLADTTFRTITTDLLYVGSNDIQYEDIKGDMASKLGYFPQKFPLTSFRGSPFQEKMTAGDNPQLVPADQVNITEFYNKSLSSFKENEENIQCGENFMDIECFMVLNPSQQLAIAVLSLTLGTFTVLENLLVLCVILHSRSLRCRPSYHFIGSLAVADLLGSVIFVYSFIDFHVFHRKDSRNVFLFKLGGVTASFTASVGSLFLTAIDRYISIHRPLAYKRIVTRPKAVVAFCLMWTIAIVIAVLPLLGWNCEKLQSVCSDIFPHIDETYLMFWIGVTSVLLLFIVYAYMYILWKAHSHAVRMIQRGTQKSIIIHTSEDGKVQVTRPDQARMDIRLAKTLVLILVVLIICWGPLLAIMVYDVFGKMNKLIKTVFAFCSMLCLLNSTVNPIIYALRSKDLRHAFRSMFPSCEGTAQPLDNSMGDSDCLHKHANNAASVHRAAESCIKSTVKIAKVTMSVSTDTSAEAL
Compound,solubility kinetic [1],Ki [2],solubility kinetic [3],Ki [4],IC50 [5]
CC(C)(O)CN=C(NS(=O)(=O)c1ccc(Cl)cc1)N1CC(c2ccccc2)C(c2ccc(Cl)cc2)=N1 (stereo unspecified),4 µM,> 1000 nM,4 µM,43 nM,–
CN1CCC(N/C(=N\S(=O)(=O)c2ccc(Cl)cc2)N2CC(c3ccccc3)C(c3ccc(Cl)cc3)=N2)CC1 (stereo unspecified),65 µM,> 1000 nM,11 µM,19 nM,–
CN(C)CCN1CCN(/C(=N\S(=O)(=O)c2ccc(Cl)cc2)N2CC(c3ccccc3)C(c3ccc(Cl)cc3)=N2)CC1 (stereo unspecified),65 µM,> 1000 nM,4 µM,9.6 nM,–
CNC(=NS(=O)(=O)c1ccc(Cl)cc1)N1CC(c2ccccc2)C(c2ccc(Cl)cc2)=N1 (stereo not drawn) [RAC-IBIPINABANT],4 µM,–,2 µM,–,–
CN(C)CCCN/C(=N\S(=O)(=O)c1ccc(Cl)cc1)N1CC(c2ccccc2)C(c2ccc(Cl)cc2)=N1.Cl (stereo unspecified),> 100 µM,> 1000 nM,38 µM,3.1 nM,–
CCc1c(C(=O)NN2CCCCC2)nc(-c2ccccc2Cl)n1-c1ccc(Cl)cc1,–,> 1000 nM,–,14 nM,> 31600 nM
O=S1(=O)CCN(/C(=N\S(=O)(=O)c2ccc(Cl)cc2)N2CC(c3ccccc3)C(c3ccc(Cl)cc3)=N2)CC1 (stereo unspecified),< 7 µM,571 nM,< 3 µM,31 nM,–
O=S(=O)(N=C(NCCCCN1CCCC1)N1CC(c2ccccc2)C(c2ccc(Cl)cc2)=N1)c1ccc(Cl)cc1 (stereo unspecified),38 µM,> 1000 nM,11 µM,27 nM,–
O=S(=O)(/N=C(\NCCCCNc1c2c(nc3ccccc13)CCCC2)N1CC(c2ccccc2)C(c2ccc(Cl)cc2)=N1)c1ccc(Cl)cc1 (stereo unspecified),–,> 1000 nM,–,42 nM,–
